In brackets after ≈: the same amount, converted by molar mass. Where two headings read alike, the source gives them in different places.
Columns and labels:
[1] = Analysis of solubility of positive active material in the electrolyte during cycle (electrode washed with new electrolyte, color; UV-visible spectroscopy); type: physicochemical; conditions: FIG. 7
Protocol: Each cell of Comparative Example 1 and Examples 1 and 2 was checked regarding how much the positive active materials were dissolved when the electrodes were taken out during the charge and washed with a new electrolyte, and the results are shown in FIG. 7.
FIG. 8 is a graph quantitatively analyzing amounts of DMPZ dissolved in each electrolyte of Comparative Example 1 and Examples 1 and 2. The cycled DMPZ electrode was re-wetted in the electrolyte, and ultraviolet (UV)-visible ray spectroscopy was performed with respect to solutions in each of the DMPZ^+ and DMPZ^2+ states to measure areas of an absorption spectrum and thus obtain each amount of DMPZ^+ and DMPZ^2+ dissolved out in the electrolyte. In FIG. 8, a vertical axis indicates the DMPZ state according to SOC, while a horizontal axis indicates a weight change as solubility (%). In FIG. 8, Comparative Example 1 is shown on the right, Example 1 is in the middle, and Example 2 is on the left.

[2] = Visual observation of the solubility of DMPZ in various solvents (color change, naked eye); type: physicochemical; conditions: FIG. 3; for solubility: organic solvent or mixture, read-out: solubility (concentration dissolved)
Source text: DMPZ was respectively dissolved in various solvents, and color changes in the solutions were examined with the naked eye to evaluate dissolution degrees.

solubility in the electrolyte during the cycles ([1]; Comparative Example 1 electrolyte: 1 M NaClO4 in TEGDME, DMPZ, DMPZ+ (SOC 50) and DMPZ2+ (SOC 100)): high solubility
solubility in the electrolyte during the cycles ([1]; Example 1 electrolyte: 1 m NaClO4 and 0.5 m Zn(CF3SO3)2 in water, charged DMPZ (DMPZ+, DMPZ2+)): slightly dissolved
solubility in the electrolyte during the cycles ([1]; Example 2 electrolyte: 17 m NaClO4 and 0.5 m Zn(CF3SO3)2 in water, DMPZ, DMPZ+ and DMPZ2+): not dissolved at all
solubility ([2]; dimethyl carbonate (DMC)): ≥ 100 mM
solubility ([2]; propylene carbonate (PC)): ~20 mM (≈ 4.21 mg/mL)
solubility ([2]; tetraethylene glycol dimethyl ether (TEGDME)): ≥ 100 mM
SMILES: CN1c2ccccc2N(C)c2ccccc21 [DMPZ, 5,10-dihydro-5,10-dimethylphenazine]
solubility (dissolution) ([2]; water solvent): not dissolved in the water solvent at all

Reference: patent publication US12725802B2, “Aqueous rechargeable battery including organic positive active material” (Seoul National University R&DB Foundation, priority 2021, dated 2026)
